Patent publication US20240228987A1, “HEXOKINASE-DERIVED PEPTIDES AND THERAPEUTICAL USES THEREOF” (INSERM (INSTITUT NATIONAL DE LA SANTÉ ET DE LA RECHERCHE …, priority 2021, published 2024)
Where a SMILES comes first, the peptide text is derived from it. Where no end group is shown, it is not given here. [ ]: non-standard residue; d: D form. The star is where a group is joined. X1 = CC(C)(C(=O)*)n1cc(-c2cccc(C(F)(F)F)c2)nn1; Nle = CCCC[C@H](N)C(=O)O; Aib = CC(C)(N)C(=O)O

Tests used:
[1] = target: T1, VDAC (Homo sapiens, UniProt P21796); assay: in-cellulo screening assay: HEK-293 cells transfected with mitoGCaMP2, MJ-induced mitochondrial Ca2+ release through VDAC; type: cell-based; details: for activity / affinity for VDAC on the screening assay (mitoGCaMP2 fluorescence): MJ 6 mM
T1 construct: HEK-293 cells, expressing VDAC and HK; endogenous in cells; host or cells: HEK-293 (ATCC), transfected only with the Ca2+ probes mitoGCaMP2 / GCaMP2
Procedure: The activity of the designed compounds was assessed on HEK-293 cells transfected with mitoGCaMP2. 40,000 cells per well were seeded in 96-well-microplates coated with Poly-D-Lysine (reference 655946, Greiner Bio-One, France) in 200 μl of DMEM supplemented with 10% FBS and 1% PS. 24 h after seeding, cells were transfected with 50 ng of mitoGCaMP2 plasmid per well using jet-PRIME reagent (Polyplus-transfection S.A, France) according to the manufacturer's recommendations. 48 h after transfection, a first measure of fluorescence was performed using the microplate reader CLARIOstar® (BMG Labtech, France). This measurement represented the basal level of Ca2+ into the mitochondria upon transfection. After a wash with 100 μl of PBS, cells were incubated with a mixture of pre-heated (37° C.) MJ at a final concentration of 6 mM and compounds at the indicated final concentrations in PBS containing 0.1% DMSO and 5% EtOH. After 35 min in a cell incubator, a second measure of fluorescence was performed using the microplate reader CLARIOstar®. This measure represented the level of mitochondrial Ca2+ according to the peptide activity. Compounds were tested in triplicates per microplates and in three or five independent experiments for each peptide. For dose effect curves, compounds were tested in triplicates per microplates and in three independent experiments. Results are expressed as the ratio between the second and first measures and normalized to the conditions without compounds containing only PBS with 0.1% DMSO and 5% EtOH. Results are expressed as the means±SD in histogram plots and dose response curves using GraphPad Prism software (version 8.0.1).
The biological screening of the peptide is based on the ability of methyl jasmonate (MJ) to binds and detaches HK-1 from mitochondrial VDAC in a time and dose dependent manner.^16,20 For this purpose, we developed an in-cellulo screening assay in which HEK-293 cells, expressing VDAC and HK,25 were transfected with GCaMP2, a cytoplasmic Ca2+-sensing probe, or with mitoGCaMP2, the same probe addressed to mitochondrial matrix. […] MJ that removes HK from VDAC was used to induce a Ca2+ release outside mitochondria measured through a drop in mitoGCaMP2 fluorescence and an increase in GCaMP2 fluorescence in cells.

[2] = target: Elastase (from porcine pancreas, EC 3.4.21.36) (Sus scrofa, UniProt P00772); details: Tris·HCl buffer pH 8, 37° C., peptides without Tat
Procedure: A stock solution of Elastase at 1 mg/mL was prepared in Tris·HCl buffer (50 mM, pH 8, containing 0.5 mM CaCl2,). The stock solution was diluted at 0.94 mg/mL with 658 μL of stock solution in 42 μL of Tris·HCl buffer. All peptides were dissolved in DMSO to prepare a 6.66 mmol/L stock solution. A more diluted peptide solution (0.666 mmol/L) was prepared with 70 μL of stock solution in 630 μL of Tris·HCl buffer pH 8. In a 1.5 mL Eppendorf, 890 μL of Tris·HCl pH 8 was introduced followed by 100 μL of peptide solution (0.666 mmol/L) and incubated for 15 min at 37° C. prior to degradation. Then, 10 μL of Elastase solution (0.94 mg/mL) was added. The reaction mixture was incubated up to 4h at 37° C. with shaking at 1000 rpm. Aliquots (50 μL) were taken at different time points, quenched with 450 μL of MeOH, and centrifuged for 20 min (14000 rpm) at 4° C. The supernatant was transferred into an injection vial and analyzed by LC-MS with an eluting program of 0.1% formic acid in water and 0.1% formic acid in acetonitrile (see analytical data section). The relative concentrations of the remaining peptides and the cleavage products were calculated by integration of the corresponding peak in the HPLC chromatogram/MS trace. A control peptide solution was prepared without the enzyme. […] All proteolytic degradation experiments were carried out in triplicate.

[3] = tested on: sciatic nerve explants; assay: sciatic nerve explant culture and CARS imaging (demyelination); type: cell-based, mouse; details: 3 μM
From the text: FIG. 11: Effects of NHKI-derived peptides 3c, 5x, 7d and 7g on sciatic nerve explants cultured in medium supplemented with serum. (A) Representative CARS images showing myelin (green) of an intact sciatic nerve collected and immediately fixed in 4% PFA and a sciatic nerve explant cultured in medium supplemented with FBS referred as negative control. (B) Representative CARS images showing myelin (green) of sciatic nerve explants cultured in medium supplemented with FBS containing NHKI-derived peptides at 3 μM for 24 h. All nerves are represented in longitudinal sections. Healthy myelin sheath (white arrows), Node of Ranvier (white stars) and myelin ovoids (orange arrows) are illustrated. Scale bar: 20 μm. (C) Graph showing the percentage of damaged fibers in intact nerves (white plot), negative controls (light grey plot), 3c and its analog 7d (blue plots) 5x and its analog 7g (red plots). (N=3 independent experiments). Results are expressed as means±SD. Statistical analysis using one-way ANOVA followed by Dunnett's multiple comparison tests. *p<0.05, **p<0.01. ns, non-significant.
Twelve-week-old C57BL6/J mice were euthanized using Pentobarbital (54.7 mg/ml, 100 mg/kg, Centravet, France). First, sciatic nerves were collected, washed in PBS and their epineurium was removed. Next, 5 mm long nerves were put in 24-well microplates (NUNC, Thermo Fisher Scientific, France) in 500 μl of DMEM supplemented with 1% PS and with or without 10% FBS containing the compounds at 3 μM containing 0.1% DMSO, and further incubated in a humidified chamber at 37° C. and 5% CO2. Negative controls consisted in sciatic nerve explant cultures without compounds (only DMEM supplemented with 1% PS, with or without 10% FBS and 0.1% DMSO). Intact sciatic nerves collected and immediately fixed in 4% PFA served as a control of healthy myelin sheath for CARS imaging. After 24 h in culture, sciatic nerve explants were washed three times with PBS and fixed for 1 h in 4% PFA aqueous solution (Electron Microscopy Sciences, Thermo Fisher Scientific, France) at room temperature. All CARS images were acquired with a two-photon microscope LSM 7 MP coupled to an OPO (Zeiss, France) complemented by a delay line. A ×20 water immersion objective (W Plan Apochromat DIC VIS-IR, Zeiss, France) was used for image acquisition. Each acquisition was conducted in three independent experiments. For each experiment, three ROIs per conditions were used to quantify the percentage of damaged fibers per field using Zen software (Zen 2.3 lite, Zeiss, France). Results are expressed as means±SD.
Next, we tested NHKI-derived compound activity on sciatic nerve explant cultures in which Schwann cells demyelinate through a mechanism involving mitochondrial Ca2+ release through VDAC1.44,45,9 Intact myelin was imaged and quantified in sciatic nerve explants using Coherent Anti-Stokes Raman Scattering (CARS) nonlinear microscopy. […] Demyelination was quantified by measuring the percentage of damaged fibers, i.e. displaying ovoid formation, over the total number of fibers imaged.

[4] = in-vitro metabolic stability in rat serum; type: in vitro ADME; details: 25% (v/v) rat serum
Procedure: FIG. 10: Study of the stability of NHKI derived sequence (3c′, 7a′, 7d′, 7f′-g′) towards rat serum (N=3 independent experiments). All peptides were tested at a concentration of 66.6 μmol/L in presence of 25% (v/v) of rat serum and water after incubation at 37° C. for 24 h. Errors bars show the standard deviation.
For each peptide, a stock solution in DMSO was prepared at a 6.66 mmol/L concentration. 70 μL of the solution were taken out and added to 630 μL of MilliQ water to make an aqueous peptide solution (0.666 mmol/L). The reaction consisted in 325 μL of MilliQ water and 125 μL of non-diluted rat serum pre-incubated at 37° C. for about 10-15 min before addition of 50 μL the peptide solution at 0.666 mmol/L. The mixture was incubated at 37° C. with shaking at 1000 rpm. Aliquots (25 μL) were taken at different time points (0 min, 5 min, 15 min, 30 min, 1h, 2h, 3h, 5h, 7h, 24h, 48h) and enzymatic reaction was quenched with 225p L of MeOH to precipitate all serum proteins. The Eppendorf tube was directly centrifuged (14000 rpm) for 20 min at 4° C. to remove precipitated proteins by pelleting.

[5] = tested on: Schwann cells; details: cited from earlier work
[6] = compounds at 3 μM, compared with 3c, 4d or 5x
[7] = 24 h, medium supplemented with serum

Chain of Elastase (from porcine pancreas, EC 3.4.21.36) (P00772 27-266): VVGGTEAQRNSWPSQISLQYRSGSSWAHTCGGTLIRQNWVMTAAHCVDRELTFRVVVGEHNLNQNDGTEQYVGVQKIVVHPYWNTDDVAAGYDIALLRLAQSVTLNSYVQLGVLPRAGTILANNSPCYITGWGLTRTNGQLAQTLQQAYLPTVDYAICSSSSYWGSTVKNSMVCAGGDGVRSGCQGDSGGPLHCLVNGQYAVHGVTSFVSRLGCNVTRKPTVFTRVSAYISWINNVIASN
T1 sequence (P21796 2-283): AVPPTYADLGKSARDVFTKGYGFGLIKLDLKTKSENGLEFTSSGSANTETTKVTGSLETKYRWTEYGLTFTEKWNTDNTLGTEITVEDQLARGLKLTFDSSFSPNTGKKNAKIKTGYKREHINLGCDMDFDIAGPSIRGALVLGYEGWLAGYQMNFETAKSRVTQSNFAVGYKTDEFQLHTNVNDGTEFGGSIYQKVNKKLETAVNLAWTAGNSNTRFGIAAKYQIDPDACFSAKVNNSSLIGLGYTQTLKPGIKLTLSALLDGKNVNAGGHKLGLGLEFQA

Compound: [Nle]IAAQLWAYYY [6o]
- activity / affinity for VDAC on the screening assay (mitoGCaMP2 fluorescence) [1, 6]: equally accommodated

Compound: C[C@H](NC(=O)[C@H](Cc1c[nH]c2ccccc12)NC(=O)[C@H](Cc1c[nH]c2ccccc12)NC(=O)[C@H](CCC(N)=O)NC(=O)[C@H](C)NC(=O)C(C)(C)n1cc(-c2cccc(C(F)(F)F)c2)nn1)C(=O)N[C@@H](Cc1ccc(O)cc1)C(=O)N[C@@H](Cc1ccc(O)cc1)C(=O)N[C@@H](Cc1ccccc1)C(=O)N[C@H](C(=O)N[C@@H](CCC(=O)O)C(=O)N[C@@H](Cc1c[nH]c2ccccc12)C(=O)N[C@@H](CCCCN)C(=O)NCC(=O)N[C@@H](CCCNC(=N)N)C(=O)N[C@@H](CCCCN)C(=O)N[C@@H](CCCCN)C(=O)N[C@@H](CCCNC(=N)N)C(=O)N[C@@H](CCCNC(=N)N)C(=O)N[C@@H](CCC(N)=O)C(=O)N[C@@H](CCCNC(=N)N)C(=O)N[C@@H](CCCNC(=N)N)C(=O)N[C@@H](CCCNC(=N)N)C(=O)N1CCC[C@H]1C(=O)N1CCC[C@H]1C(=O)N[C@@H](CCC(N)=O)C(N)=O)[C@@H](C)O [7f] (X1-AQWWAYYFTEWKGRKKRRQRRRPPQ-NH2)
- IC50 [1]: 2.6 ± 0.6 µM
- stability towards elastase [2]: most stable compound

Compound: AQWWAYYFTEWK [5x, tested peptide also contains Tat]
- activity / affinity for VDAC on the screening assay (mitoGCaMP2 fluorescence) [1, 6]: more significant
- percentage of damaged fibers ([3]; 24h, serum-free medium): significantly reduced the level of damaged fibers

Compound: CC(=O)N[C@@H](C)C(=O)N[C@@H](CCC(N)=O)C(=O)N[C@@H](CC(C)C)C(=O)N[C@@H](CC(C)C)C(=O)NC(C)(C)C(=O)N[C@@H](Cc1ccc(O)cc1)C(=O)N[C@@H](Cc1ccc(O)cc1)C(=O)N[C@@H](Cc1ccccc1)C(=O)N[C@H](C(=O)N[C@@H](CCC(=O)O)C(=O)N[C@@H](CC(C)C)C(=O)N[C@@H](CCCCN)C(N)=O)[C@@H](C)O [7a′] (Ac-AQLL[Aib]YYFTELK-NH2; N-terminus and C-terminus assumed)
- remaining at 24 h, 66.6 µmol/L ([4]; 37° C., after 24 h, read-out: remaining compound in rat serum): ~65%
- stability towards elastase [2]: improve their stability towards elastase

Compound: CC(=O)N[C@@H](C)C(=O)NC(C)(C)C(=O)N[C@@H](C)C(=O)NC(C)(C)C(=O)N[C@@H](C)C(=O)N[C@@H](CCC(N)=O)C(=O)N[C@@H](CC(C)C)C(=O)N[C@@H](CC(C)C)C(=O)NC(C)(C)C(=O)N[C@@H](Cc1ccc(O)cc1)C(=O)N[C@@H](Cc1ccc(O)cc1)C(=O)N[C@@H](Cc1ccccc1)C(=O)N[C@H](C(=O)N[C@@H](CCC(=O)O)C(=O)N[C@@H](CC(C)C)C(=O)N[C@@H](CCCCN)C(N)=O)[C@@H](C)O [7d′] (Ac-A[Aib]A[Aib]AQLL[Aib]YYFTELK-NH2; N-terminus and C-terminus assumed)
- stability towards elastase [2]: improve their stability towards elastase

Compound: CCCC[C@H](NC(=O)[C@H](CCC(N)=O)NC(=O)[C@@H]1CCCN1C(=O)[C@@H]1CCCN1C(=O)[C@H](CCCNC(=N)N)NC(=O)[C@H](CCCNC(=N)N)NC(=O)[C@H](CCCNC(=N)N)NC(=O)[C@H](CCC(N)=O)NC(=O)[C@H](CCCNC(=N)N)NC(=O)[C@H](CCCNC(=N)N)NC(=O)[C@H](CCCCN)NC(=O)[C@H](CCCCN)NC(=O)[C@H](CCCNC(=N)N)NC(=O)CNC(C)=O)C(=O)N[C@H](C(=O)N[C@@H](C)C(=O)N[C@@H](C)C(=O)N[C@@H](CCC(N)=O)C(=O)N[C@@H](CC(C)C)C(=O)N[C@@H](CC(C)C)C(=O)N[C@@H](C)C(=O)N[C@@H](Cc1ccc(O)cc1)C(=O)N[C@@H](Cc1ccc(O)cc1)C(=O)N[C@@H](Cc1ccccc1)C(=O)N[C@H](C(=O)N[C@@H](CCC(=O)O)C(=O)N[C@@H](CC(C)C)C(=O)N[C@@H](CCCCN)C(N)=O)[C@@H](C)O)[C@@H](C)CC [2a]
- IC50 [1]: 13.9 ± 3.1 µM

Compound: CC(C)CCC[C@@H](C)[C@H]1CC[C@H]2[C@@H]3CCC4=CC(=NO)CC[C@]4(C)[C@H]3CC[C@]12C [olesoxime]
- demyelination [5]: block demyelination
- mitochondrial calcium release [5]: prevent mitochondrial calcium release

Compound: [Nle]IAAQWLAYYY [6m]
- activity / affinity for VDAC on the screening assay (mitoGCaMP2 fluorescence) [1, 6]: equally accommodated

Compound: AQWLAYYLTELK [5l, tested peptide also contains Tat]
- activity / affinity for VDAC on the screening assay (mitoGCaMP2 fluorescence) [1, 6]: beneficial effect

Compound: Ac-AQLLAYYFTELKGRKKRRQRRRPPQ-NH2 [3c]
- remaining at 5 min, 66.6 µmol/L ([4]; 25% rat serum, after 5 min, preliminary experiment, read-out: remaining peptide in rat serum): 10%
- percentage of damaged fibers ([3]; 24h, serum-free medium): same percentage of damaged fibers as the negative control

Compound: C[C@H](NC(=O)C(C)(C)n1cc(-c2cccc(C(F)(F)F)c2)nn1)C(=O)N[C@@H](CCC(N)=O)C(=O)N[C@@H](Cc1c[nH]c2ccccc12)C(=O)N[C@@H](Cc1c[nH]c2ccccc12)C(=O)NC(C)(C)C(=O)N[C@@H](Cc1ccc(O)cc1)C(=O)N[C@@H](Cc1ccc(O)cc1)C(=O)N[C@@H](Cc1ccccc1)C(=O)N[C@H](C(=O)N[C@@H](CCC(=O)O)C(=O)N[C@@H](Cc1c[nH]c2ccccc12)C(=O)N[C@@H](CCCCN)C(=O)NCC(=O)N[C@@H](CCCNC(=N)N)C(=O)N[C@@H](CCCCN)C(=O)N[C@@H](CCCCN)C(=O)N[C@@H](CCCNC(=N)N)C(=O)N[C@@H](CCCNC(=N)N)C(=O)N[C@@H](CCC(N)=O)C(=O)N[C@@H](CCCNC(=N)N)C(=O)N[C@@H](CCCNC(=N)N)C(=O)N[C@@H](CCCNC(=N)N)C(=O)N1CCC[C@H]1C(=O)N1CCC[C@H]1C(=O)N[C@@H](CCC(N)=O)C(N)=O)[C@@H](C)O [7g] (X1-AQWW[Aib]YYFTEWKGRKKRRQRRRPPQ-NH2; N-terminus assumed)
- activity / affinity for VDAC on the screening assay (mitoGCaMP2 fluorescence) [1, 6]: significant higher activity
- activity / affinity for VDAC on the screening assay (mitoGCaMP2 fluorescence) ([1]; compounds at 10 μM): significantly more active than compounds 3c and 5x
- nerve fibers damage [3, 7]: significantly decreased nerve fibers damage
- preservation of the myelin sheath [3, 7]: significantly preserve the myelin sheath at a similar level to an intact nerve
- myelin sheath pattern ([3]; 24h, serum-free medium): same myelin sheath pattern as an intact nerve
- percentage of damaged fibers ([3]; 24h, serum-free medium): significantly reduced the level of damaged fibers

Compound: AQWLAYYYTELK [5m, tested peptide also contains Tat]
- activity / affinity for VDAC on the screening assay (mitoGCaMP2 fluorescence) [1, 6]: equally accommodated

Compound: [Nle]IAAQWWAYYL [6q]
- activity / affinity for VDAC on the screening assay (mitoGCaMP2 fluorescence) [1, 6]: more significant

Compound: AQLWAYYYTEWK [5t, tested peptide also contains Tat]
- activity / affinity for VDAC on the screening assay (mitoGCaMP2 fluorescence) [1, 6]: beneficial effect
